Assay results taken from patent US20220175777A1, “Inhibitors of Multidrug Resistance Transporter P-Glycoprotein” (Southern Methodist University, priority 2014, published 2022).

Assays:
P-gp = P-gp (Homo sapiens, UniProt P08183)
Method: Stimulation of basal ATPase by 29-variants was used as an indicator that a compound may be a P-gp transport substrate. Effects on stimulated P-gp ATPase activity indicated whether a compound directly interfered with ATP usage by the protein (***, p<0.001; **, p<0.01; *, p<0.1; NS, not significant). Quantitative cellular accumulation of 29-variants was performed using LC-MS/MS and is presented as a ratio of the cellular amounts of 29-variants in the presence of P-gp inhibitor, tariquidar, divided by amounts accumulated in its absence. […] Binding of an ATP analog, SL-ATP, to P-gp was used to determine whether ATP binding to P-gp was affected by the 29-variants. Values+/−standard deviations are shown for at least three different P-gp preparations and three independent SL-ATP titration experiments. The values for SL-ATP binding in the presence of 29 were taken directly from Brewer et al. (2014).
Intracellular accumulation of compound 29 variants. Cell accumulation assays for each of the 29 variants were performed as in reference^28 to more directly assess whether the compounds were indeed transport substrates for P-gp.

[1] = molecular target: T1, Cysteineless Mouse MDR3 P-glycoprotein (Mus musculus, UniProt P21447, C1070A/C1121A/C1223A/C133A/C427A/C638A/C669A/C713A/C952A); conditions: cited from earlier work
T1 construct: made in house; host or cells: Pichia pastoris
T1 sequence (P21447 whole entry C133A/C427A/C638A/C669A/C713A/C952A/C1070A/C1121A/C1223A): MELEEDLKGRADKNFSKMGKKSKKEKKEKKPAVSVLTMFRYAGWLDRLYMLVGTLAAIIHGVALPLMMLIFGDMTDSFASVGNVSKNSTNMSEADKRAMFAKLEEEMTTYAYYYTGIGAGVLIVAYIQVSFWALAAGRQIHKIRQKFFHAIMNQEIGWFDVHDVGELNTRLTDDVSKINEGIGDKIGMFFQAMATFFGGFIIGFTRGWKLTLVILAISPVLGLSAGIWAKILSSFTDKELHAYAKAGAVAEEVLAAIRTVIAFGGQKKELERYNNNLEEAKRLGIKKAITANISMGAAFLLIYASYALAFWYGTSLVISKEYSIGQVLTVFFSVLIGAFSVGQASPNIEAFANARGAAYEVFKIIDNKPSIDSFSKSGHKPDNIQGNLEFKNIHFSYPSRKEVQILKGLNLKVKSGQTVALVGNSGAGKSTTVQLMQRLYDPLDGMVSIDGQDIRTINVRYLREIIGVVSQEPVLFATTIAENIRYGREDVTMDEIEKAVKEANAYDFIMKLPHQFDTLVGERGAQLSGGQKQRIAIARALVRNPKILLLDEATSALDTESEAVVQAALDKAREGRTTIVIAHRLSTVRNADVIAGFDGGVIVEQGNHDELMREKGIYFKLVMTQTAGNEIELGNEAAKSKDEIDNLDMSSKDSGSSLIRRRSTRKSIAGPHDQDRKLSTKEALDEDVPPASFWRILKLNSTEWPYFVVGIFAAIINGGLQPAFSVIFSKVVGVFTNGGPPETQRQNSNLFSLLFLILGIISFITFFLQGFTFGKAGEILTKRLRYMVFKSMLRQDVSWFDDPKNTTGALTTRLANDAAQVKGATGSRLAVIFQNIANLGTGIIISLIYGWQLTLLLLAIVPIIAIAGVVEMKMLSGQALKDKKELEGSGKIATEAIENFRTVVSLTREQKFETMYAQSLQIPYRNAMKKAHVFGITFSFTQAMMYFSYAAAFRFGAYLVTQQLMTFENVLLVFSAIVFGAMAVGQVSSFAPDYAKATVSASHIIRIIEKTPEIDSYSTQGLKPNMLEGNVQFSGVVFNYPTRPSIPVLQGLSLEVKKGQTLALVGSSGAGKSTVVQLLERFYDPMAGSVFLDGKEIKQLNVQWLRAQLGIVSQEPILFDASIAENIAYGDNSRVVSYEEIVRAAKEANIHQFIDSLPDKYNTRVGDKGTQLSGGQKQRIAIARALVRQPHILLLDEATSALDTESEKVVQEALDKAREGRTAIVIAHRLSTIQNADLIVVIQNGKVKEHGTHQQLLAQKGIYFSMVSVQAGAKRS

[2] = molecular target: Normal Human MDR1 P-glycoprotein (Homo sapiens, UniProt P08183); test: ATP hydrolysis by human P-gp assembled into membrane nanodiscs; assay type: biochemical; conditions: human MDR1 P-gp in nanodiscs
Sequence of Normal Human MDR1 P-glycoprotein (P08183 whole entry): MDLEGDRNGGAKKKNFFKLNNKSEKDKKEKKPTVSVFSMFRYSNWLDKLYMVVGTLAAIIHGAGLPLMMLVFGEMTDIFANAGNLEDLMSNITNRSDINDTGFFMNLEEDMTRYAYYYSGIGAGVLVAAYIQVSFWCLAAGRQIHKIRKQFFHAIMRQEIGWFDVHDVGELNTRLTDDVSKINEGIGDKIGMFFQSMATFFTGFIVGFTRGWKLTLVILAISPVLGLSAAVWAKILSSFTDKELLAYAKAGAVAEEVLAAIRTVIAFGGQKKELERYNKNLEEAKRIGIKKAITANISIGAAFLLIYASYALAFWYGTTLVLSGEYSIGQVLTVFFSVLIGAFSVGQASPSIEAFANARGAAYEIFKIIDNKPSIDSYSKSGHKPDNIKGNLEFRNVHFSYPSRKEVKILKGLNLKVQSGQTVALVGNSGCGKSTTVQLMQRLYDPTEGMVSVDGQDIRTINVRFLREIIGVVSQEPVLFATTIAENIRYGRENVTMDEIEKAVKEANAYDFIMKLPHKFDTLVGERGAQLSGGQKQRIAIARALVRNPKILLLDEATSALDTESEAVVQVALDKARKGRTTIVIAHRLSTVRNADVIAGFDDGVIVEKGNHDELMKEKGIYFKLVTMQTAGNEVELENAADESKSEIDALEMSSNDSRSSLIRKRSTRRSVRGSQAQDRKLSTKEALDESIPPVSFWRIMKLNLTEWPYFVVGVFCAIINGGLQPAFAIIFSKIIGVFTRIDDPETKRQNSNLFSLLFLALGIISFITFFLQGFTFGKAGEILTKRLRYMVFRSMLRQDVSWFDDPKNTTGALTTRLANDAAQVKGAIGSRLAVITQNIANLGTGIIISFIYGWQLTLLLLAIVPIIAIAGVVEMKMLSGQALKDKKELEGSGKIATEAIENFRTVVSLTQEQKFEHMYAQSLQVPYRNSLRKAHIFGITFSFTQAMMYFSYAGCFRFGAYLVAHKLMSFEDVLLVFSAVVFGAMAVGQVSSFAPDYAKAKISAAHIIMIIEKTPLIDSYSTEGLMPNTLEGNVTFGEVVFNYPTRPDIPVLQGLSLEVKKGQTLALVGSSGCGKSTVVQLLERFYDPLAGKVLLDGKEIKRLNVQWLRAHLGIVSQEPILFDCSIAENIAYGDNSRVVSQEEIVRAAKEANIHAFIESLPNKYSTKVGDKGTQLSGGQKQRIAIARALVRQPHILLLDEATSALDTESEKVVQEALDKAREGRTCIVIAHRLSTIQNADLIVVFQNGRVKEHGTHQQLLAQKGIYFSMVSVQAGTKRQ

DU145TXR [3] = test: Resensitization of DU145TXR to paclitaxel by 29 variants (MTT cell viability); assay type: cell-based, human; conditions: for Fold vs PTX ÷ 29: compared to parental compound 29
DU145TXR [4] = test: Potentiation of 500 nM paclitaxel cytotoxicity (MTT); assay type: cell-based, human
Method: FIGS. 4A and 4B show the in silico identified P-gp inhibitors potentiate the cytotoxic effects of paclitaxel in the MDR human prostate cancer cell line DU145TxR. […] Values represent the mean±SEM of at least two separate experiments performed in triplicate.
A range of experimental inhibitor concentrations was added in the presence of 500 nM paclitaxel and the cell viability was assessed using the MTT assay.
In order to compare the efficacy of inhibitors, the potentiation concentration of inhibitor resulting in 50% reduction in cell viability, PC50, in the presence of 500 nM paclitaxel was calculated from the data in FIG. 4A.

DU145TXR [5] = test: Intrinsic toxicity, MTT survival; assay type: cell-based, human; conditions: Homo sapiens; intrinsic toxicity, 48 hours, MTT; ± standard error
Method: (§1) Percent survival determined by MTT assay calculated relative to cells treated with equal volume DMSO vehicle and represent the mean±SEM from 2-4 separate studies, each study performed in triplicate wells.
The intrinsic in vitro toxicities of identified compounds were evaluated to determine their potential therapeutic window. This was assessed in a noncancerous cell line (HFL1) and the human prostate cancer cell lines DU145 and the MDR sub-line DU145TxR.

HFL1 = test: Intrinsic toxicity, MTT survival; assay type: cell-based; conditions: Homo sapiens, 48 hours, ± standard error
Method: as §1
The intrinsic in vitro toxicities of identified compounds were evaluated to determine their potential therapeutic window. This was assessed in a noncancerous cell line (HFL1) and the human prostate cancer cell lines DU145 and the MDR sub-line DU145TxR. The potential toxicity of the compounds were assessed at concentrations that centered around 25 μM.

Sequence of P-gp (P08183 whole entry): as above

Structure (SMILES): Cc1cc(C)c(-c2cc(NC(=O)CSc3n[nH]c(C4CC4)n3)n(-c3ccccc3)n2)cc1C [SMU-29, 2-[(5-cyclopropyl-1H-1,2,4-triazol-3-yl)sulfanyl]-N-[2-phenyl-5-(2,4,5-trimethylphenyl)pyrazol-3-yl]acetamide]
- Intracellular accumulation in the presence versus absence of TQR (P-gp): no significant difference
- Transport substrate for P-gp (P-gp; not told): not a transport substrate
- Effect on SL-ANP binding ([1]; ESR data of Brewer et al. (2014)): not interfere with ATP binding
- Maximum ATP binding mol SL-ANP bound/mol P-gp ([1]; in presence of 29, taken from Brewer et al. (2014)): 1.9 ± 0.1^1 mol SL-ANP bound/mol P-gp
- Basal ATPase (% of DMSO) ([2]; basal): 88 ± 9 % of DMSO
- Stimulated ATPase (% of DMSO) ([2]; stimulated): 62 ± 3 % of DMSO
- Fold vs PTX ÷ 29 (DU145TXR [3]; 3 μM inhibitor): 1 Fold
- Fold vs PTX (DU145TXR [3]; 3 μM inhibitor, fold improvement of PTX sensitivity vs PTX alone): 3 Fold
- Fold vs PTX ÷ 29 (DU145TXR [3]; 5 μM inhibitor): 1 Fold
- Fold vs PTX (DU145TXR [3]; 5 μM inhibitor, vs PTX alone): 11 Fold
- Fold vs PTX ÷ 29 (DU145TXR [3]; 7 μM inhibitor): 1 Fold
- Fold vs PTX (DU145TXR [3]; 7 μM inhibitor, vs PTX alone): 36 Fold
- Fold vs PTX ÷ 29 (DU145TXR [3]; 10 μM inhibitor): 1 Fold
- Fold vs PTX (DU145TXR [3]; 10 μM inhibitor, vs PTX alone): 101 Fold
- Effect on paclitaxel sensitivity (DU145TXR [4]; 50 nM-25 μM inhibitor with 500 nM paclitaxel): strongly affected the sensitivity
- EC50 (DU145TXR [4]; in the presence of 500 nM paclitaxel, 48 hours, read-out: PC50, potentiation concentration of inhibitor resulting in 50% reduction in cell viability): 2.33 ± 0.01 µM
- IC50 (DU145TXR [5]): 37.9 ± 0.02 µM
- IC50 (HFL1): 48.2 ± 0.01 µM
